Laboratory results reported in the NIST ThermoML archive (doi:10.1016/j.jct.2008.01.008).
Numbers after ± are expanded uncertainties.

Experiments:
[1] = 298.15 K, 101.33 kPa, Liquid; for viscosity: Capillary tube (Ostwald / Ubbelohde) method; for speed of sound: Sing-around technique in a fixed-path interferometer
[2] = xn = mol fraction of the nth substance listed; details: 298.15 K, 101 kPa, Liquid; for viscosity: Capillary tube (Ostwald / Ubbelohde) method; for speed of sound: Sing-around technique in a fixed-path interferometer

CO [methanol]
[1]
Details	mass density [kg/m3]	speed of sound [m/s]	viscosity [mPa·s]
–	786.548 ± 0.49	1102.6 ± 0.77	0.5444 ± 0.011

CCCCCO [pentan-1-ol]
[1]
Details	mass density [kg/m3]	speed of sound [m/s]	viscosity [mPa·s]
–	811.001 ± 0.46	1276 ± 0.83	3.495 ± 0.022

CCCO [propan-1-ol]
[1]
Details	mass density [kg/m3]	speed of sound [m/s]	viscosity [mPa·s]
–	799.666 ± 0.47	1206.5 ± 0.8	1.959 ± 0.015

COCC(C)OCC(C)OC (centres undefined) [2-methoxy-1-(2-methoxy-1-methylethoxy)propane] + CCCO
[2]
Details	mass density [kg/m3]	speed of sound [m/s]	viscosity [mPa·s]
x1 = 0.0008	–	–	1.955 ± 0.015
x1 = 0.0061	–	–	1.928 ± 0.015
x1 = 0.0186	–	–	1.866 ± 0.015
x1 = 0.0409	–	–	1.775 ± 0.015
x1 = 0.0653	815.198 ± 0.45	1210.9 ± 0.81	–
x1 = 0.0666	–	–	1.678 ± 0.014
x1 = 0.0903	–	–	1.599 ± 0.014
x1 = 0.1089	824.018 ± 0.43	1212.8 ± 0.81	–
x1 = 0.1309	–	–	1.494 ± 0.013
x1 = 0.1451	830.582 ± 0.42	1214 ± 0.81	–
x1 = 0.1846	–	–	1.382 ± 0.013
x1 = 0.2124	841.11 ± 0.41	1215.2 ± 0.81	–
x1 = 0.267	–	–	1.264 ± 0.013
x1 = 0.2694	848.766 ± 0.4	1216 ± 0.81	–
x1 = 0.3041	852.935 ± 0.39	1215.8 ± 0.81	–
x1 = 0.3136	–	–	1.211 ± 0.012
x1 = 0.3359	856.509 ± 0.39	1215.6 ± 0.81	–
x1 = 0.345	–	–	1.184 ± 0.012
x1 = 0.3718	–	–	1.164 ± 0.012
x1 = 0.3913	862.204 ± 0.38	1215.6 ± 0.81	–
x1 = 0.4516	–	–	1.112 ± 0.012
x1 = 0.4561	868.154 ± 0.37	1215.4 ± 0.81	–
x1 = 0.502	872.013 ± 0.36	1215.3 ± 0.81	–
x1 = 0.5198	–	–	1.081 ± 0.012
x1 = 0.5464	875.439 ± 0.36	1214.6 ± 0.81	–
x1 = 0.5625	–	–	1.066 ± 0.012
x1 = 0.6111	–	–	1.05 ± 0.012
x1 = 0.6139	880.179 ± 0.35	1213.9 ± 0.81	–
x1 = 0.6459	–	–	1.043 ± 0.012
x1 = 0.6513	882.571 ± 0.35	1213.2 ± 0.81	–
x1 = 0.708	885.911 ± 0.34	1212.5 ± 0.81	–
x1 = 0.7346	–	–	1.021 ± 0.012
x1 = 0.7572	888.492 ± 0.34	1211.4 ± 0.81	–
x1 = 0.7703	–	–	1.012 ± 0.012
x1 = 0.8098	891.002 ± 0.33	1210.3 ± 0.81	–
x1 = 0.8317	–	–	1.005 ± 0.012
x1 = 0.8457	892.536 ± 0.33	1209.5 ± 0.81	–
x1 = 0.8591	–	–	1.002 ± 0.012
x1 = 0.9067	894.986 ± 0.33	1207.9 ± 0.8	–
x1 = 0.9511	–	–	0.9968 ± 0.012
x1 = 0.9576	896.939 ± 0.33	1206.4 ± 0.8	–
x1 = 0.9746	897.584 ± 0.32	1206.1 ± 0.8	–
x1 = 0.9753	–	–	0.993 ± 0.012
x1 = 0.9915	–	–	0.9927 ± 0.012

COCC(C)OCC(C)OC (centres undefined) [2-methoxy-1-(2-methoxy-1-methylethoxy)propane]
[1]
Details	mass density [kg/m3]	speed of sound [m/s]	viscosity [mPa·s]
–	898.566 ± 0.33	1205 ± 0.8	0.9926 ± 0.012

CCCCCCCO [heptan-1-ol]
[1]
Details	mass density [kg/m3]	speed of sound [m/s]	viscosity [mPa·s]
–	818.851 ± 0.45	1327.4 ± 0.84	5.886 ± 0.034
